This is an account of results in patent publication US8901133B2, “Heterocyclic compounds and uses thereof” (Infinity Pharmaceuticals, Inc., priority 2010, dated 2014).

Test [1] concerns the target T1, PI3Kγ (Homo sapiens, UniProt P48736).
T1 construct: purchased Millipore Corporation 14-558-K
The experiment in a line: PI3 Kinase HTRF assay, PI3Kγ. Type of test: biochemical. The note with it: 10 μM PIP2, 10 μM ATP; read-out: PI3K γ IC50. Summed up:
(§1)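 Compounds were tested at 12 concentrations from 20 μM down to 0.1 nM against purified recombinant PI3K, which phosphorylated PIP2 (10 μM) in the presence of ATP (10 μM). Formed PIP3 was quantified by time-resolved FRET using GRP1 PH domain binding; emission ratios gave percent inhibition and IC50.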
(In general: Time-resolved FRET reads energy transfer from a long-lived donor to a nearby acceptor.)

Test [2] has as its system Balb/c splenic B cells. The experiment in a line: B cell activation and proliferation assay (Alamar Blue). Type of test: cell-based. The note with it: Mus musculus, read-out: B cell prolif. IC50. Here is the method:
The ability of one or more subject compounds to inhibit B cell activation and proliferation is determined according to standard procedures known in the art. For example, an in vitro cellular proliferation assay is established that measures the metabolic activity of live cells. The assay is performed in a 96 well microtiter plate using Alamar Blue reduction. Balb/c splenic B cells are purified over a Ficoll-Paque™ PLUS gradient followed by magnetic cell separation using a MACS B cell Isolation Kit (Miletenyi). Cells are plated in 90 ul at 50,000 cells/well in B Cell Media (RPMI+10% FBS+Penn/Strep+50 uM bME+5 mM HEPES). A compound disclosed herein is diluted in B Cell Media and added in a 10 μl volume. Plates are incubated for 30 min at 37 C and 5% CO2 (0.2% DMSO final concentration). A 50 μl B cell stimulation cocktail is then added containing either 10 ug/ml LPS or 5 ug/ml F(ab′)2 Donkey anti-mouse IgM plus 2 ng/ml recombinant mouse IL4 in B Cell Media. Plates are incubated for 72 hours at 37° C. and 5% CO2. A volume of 15 μl of Alamar Blue reagent is added to each well and plates are incubated for 5 hours at 37 C and 5% CO2. Alamar Blue fluoresce is read at 560Ex/590Em, and IC50 or EC50 values are calculated using GraphPad Prism 5.
On the technique in general: Alamar Blue is a resazurin reagent that responds to reducing activity.

Test [3] has as its target T2, PI3Kα (Homo sapiens, UniProt P42336).
T2 construct: purchased Millipore Corporation 14-602-K
The experiment in a line: PI3 Kinase HTRF assay, PI3Kα. The note with it: 10 μM PIP2, 10 μM ATP; read-out: PI3K α IC50. Type of test: biochemical. In outline:
as §1

For test [4], the target named is T3, PI3Kδ (Homo sapiens, UniProt O00329).
T3 construct: purchased Millipore Corporation 14-604-K
T3 sequence (O00329 whole entry): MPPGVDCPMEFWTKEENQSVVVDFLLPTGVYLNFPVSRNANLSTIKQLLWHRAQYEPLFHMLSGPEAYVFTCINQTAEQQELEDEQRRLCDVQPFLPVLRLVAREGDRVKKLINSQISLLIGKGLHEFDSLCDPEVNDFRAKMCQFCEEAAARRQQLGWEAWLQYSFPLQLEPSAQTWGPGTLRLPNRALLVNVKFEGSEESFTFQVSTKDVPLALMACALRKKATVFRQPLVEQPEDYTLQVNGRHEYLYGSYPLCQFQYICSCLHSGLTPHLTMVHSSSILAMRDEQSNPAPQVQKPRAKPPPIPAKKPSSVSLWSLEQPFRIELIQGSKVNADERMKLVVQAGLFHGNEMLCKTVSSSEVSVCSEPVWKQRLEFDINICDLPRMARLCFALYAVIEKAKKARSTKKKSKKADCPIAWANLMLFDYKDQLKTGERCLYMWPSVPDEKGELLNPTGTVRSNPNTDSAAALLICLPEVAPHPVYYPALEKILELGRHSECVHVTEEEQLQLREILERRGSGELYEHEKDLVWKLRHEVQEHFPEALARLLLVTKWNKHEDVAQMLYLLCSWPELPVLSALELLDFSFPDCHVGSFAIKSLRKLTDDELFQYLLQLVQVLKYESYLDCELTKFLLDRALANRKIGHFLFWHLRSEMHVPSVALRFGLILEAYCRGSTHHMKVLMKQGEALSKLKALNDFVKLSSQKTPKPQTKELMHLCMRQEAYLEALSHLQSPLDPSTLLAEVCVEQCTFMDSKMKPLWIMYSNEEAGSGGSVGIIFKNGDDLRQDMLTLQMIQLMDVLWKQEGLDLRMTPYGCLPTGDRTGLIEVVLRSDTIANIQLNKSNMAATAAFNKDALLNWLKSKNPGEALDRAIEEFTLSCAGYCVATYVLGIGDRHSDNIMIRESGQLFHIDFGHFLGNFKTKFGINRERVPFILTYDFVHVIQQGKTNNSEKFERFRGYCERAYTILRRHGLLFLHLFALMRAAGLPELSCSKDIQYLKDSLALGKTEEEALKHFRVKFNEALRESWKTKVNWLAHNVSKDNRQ
T3 sequence (P27986 whole entry partner): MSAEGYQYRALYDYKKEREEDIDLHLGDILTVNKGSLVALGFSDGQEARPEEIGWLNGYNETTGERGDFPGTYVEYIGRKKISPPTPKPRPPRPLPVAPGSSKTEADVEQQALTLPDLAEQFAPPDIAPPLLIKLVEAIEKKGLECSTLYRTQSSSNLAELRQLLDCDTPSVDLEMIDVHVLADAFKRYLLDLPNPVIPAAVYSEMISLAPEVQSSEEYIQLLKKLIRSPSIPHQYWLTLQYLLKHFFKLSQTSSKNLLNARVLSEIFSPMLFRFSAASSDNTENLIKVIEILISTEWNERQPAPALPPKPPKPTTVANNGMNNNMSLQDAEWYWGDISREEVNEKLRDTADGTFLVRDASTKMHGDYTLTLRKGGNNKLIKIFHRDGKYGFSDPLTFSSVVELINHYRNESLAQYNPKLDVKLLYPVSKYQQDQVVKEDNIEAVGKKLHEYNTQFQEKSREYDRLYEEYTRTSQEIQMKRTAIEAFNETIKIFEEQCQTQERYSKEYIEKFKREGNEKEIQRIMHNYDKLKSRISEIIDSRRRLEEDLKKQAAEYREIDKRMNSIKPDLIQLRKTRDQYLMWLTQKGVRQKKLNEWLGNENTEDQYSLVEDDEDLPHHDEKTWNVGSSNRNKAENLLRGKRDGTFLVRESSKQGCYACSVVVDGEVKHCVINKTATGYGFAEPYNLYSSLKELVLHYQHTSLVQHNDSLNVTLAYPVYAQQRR
As to the kind of experiment: PI3 Kinase HTRF assay, PI3Kδ. Type of test: biochemical. The note with it: 10 μM PIP2, 10 μM ATP; read-out: PI3K δ IC50. In outline:
as §1

Test [5] deals with T4, PI3Kβ (Homo sapiens, UniProt P42338).
T4 construct: purchased Millipore Corporation 14-603-K
T4 sequence (P42338 whole entry): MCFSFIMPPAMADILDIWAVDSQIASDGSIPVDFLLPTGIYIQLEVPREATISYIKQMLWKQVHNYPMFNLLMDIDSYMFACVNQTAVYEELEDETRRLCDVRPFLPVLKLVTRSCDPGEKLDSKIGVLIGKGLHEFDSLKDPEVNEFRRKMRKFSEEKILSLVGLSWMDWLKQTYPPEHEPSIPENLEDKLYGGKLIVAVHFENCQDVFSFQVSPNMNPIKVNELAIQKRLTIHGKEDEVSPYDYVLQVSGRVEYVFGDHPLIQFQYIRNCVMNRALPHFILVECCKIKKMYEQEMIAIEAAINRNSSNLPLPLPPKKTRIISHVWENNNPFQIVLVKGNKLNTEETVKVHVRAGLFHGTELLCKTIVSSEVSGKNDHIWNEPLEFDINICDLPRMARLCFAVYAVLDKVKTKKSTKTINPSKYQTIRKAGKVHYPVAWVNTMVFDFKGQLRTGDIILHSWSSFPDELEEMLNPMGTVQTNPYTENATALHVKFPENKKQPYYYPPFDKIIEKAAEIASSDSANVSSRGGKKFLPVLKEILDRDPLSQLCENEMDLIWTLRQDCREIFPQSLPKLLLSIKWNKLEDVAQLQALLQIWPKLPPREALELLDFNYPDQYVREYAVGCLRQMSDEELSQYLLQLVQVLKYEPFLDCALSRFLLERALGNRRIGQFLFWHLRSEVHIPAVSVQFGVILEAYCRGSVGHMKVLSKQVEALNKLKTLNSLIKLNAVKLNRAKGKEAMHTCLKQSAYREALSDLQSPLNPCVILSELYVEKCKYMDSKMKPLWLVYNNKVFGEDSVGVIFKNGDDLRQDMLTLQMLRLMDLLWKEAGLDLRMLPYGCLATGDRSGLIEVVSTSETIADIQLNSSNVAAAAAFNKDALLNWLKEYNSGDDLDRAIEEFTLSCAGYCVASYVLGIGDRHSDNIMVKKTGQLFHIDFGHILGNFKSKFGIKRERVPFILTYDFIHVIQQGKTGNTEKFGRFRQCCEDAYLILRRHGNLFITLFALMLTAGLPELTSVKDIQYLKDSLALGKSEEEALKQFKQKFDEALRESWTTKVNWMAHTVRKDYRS
T4 sequence (P27986 whole entry partner): as the sequence (P27986 whole entry partner) above
As to the kind of experiment: PI3 Kinase HTRF assay, PI3Kβ. Type of test: biochemical. The conditions noted are these: 10 μM PIP2, 10 μM ATP; read-out: PI3K β IC50. In outline: as §1

pIC50: −log10 of the molar value. Bounds are passed on as bounds.

T1 sequence (P48736 whole entry): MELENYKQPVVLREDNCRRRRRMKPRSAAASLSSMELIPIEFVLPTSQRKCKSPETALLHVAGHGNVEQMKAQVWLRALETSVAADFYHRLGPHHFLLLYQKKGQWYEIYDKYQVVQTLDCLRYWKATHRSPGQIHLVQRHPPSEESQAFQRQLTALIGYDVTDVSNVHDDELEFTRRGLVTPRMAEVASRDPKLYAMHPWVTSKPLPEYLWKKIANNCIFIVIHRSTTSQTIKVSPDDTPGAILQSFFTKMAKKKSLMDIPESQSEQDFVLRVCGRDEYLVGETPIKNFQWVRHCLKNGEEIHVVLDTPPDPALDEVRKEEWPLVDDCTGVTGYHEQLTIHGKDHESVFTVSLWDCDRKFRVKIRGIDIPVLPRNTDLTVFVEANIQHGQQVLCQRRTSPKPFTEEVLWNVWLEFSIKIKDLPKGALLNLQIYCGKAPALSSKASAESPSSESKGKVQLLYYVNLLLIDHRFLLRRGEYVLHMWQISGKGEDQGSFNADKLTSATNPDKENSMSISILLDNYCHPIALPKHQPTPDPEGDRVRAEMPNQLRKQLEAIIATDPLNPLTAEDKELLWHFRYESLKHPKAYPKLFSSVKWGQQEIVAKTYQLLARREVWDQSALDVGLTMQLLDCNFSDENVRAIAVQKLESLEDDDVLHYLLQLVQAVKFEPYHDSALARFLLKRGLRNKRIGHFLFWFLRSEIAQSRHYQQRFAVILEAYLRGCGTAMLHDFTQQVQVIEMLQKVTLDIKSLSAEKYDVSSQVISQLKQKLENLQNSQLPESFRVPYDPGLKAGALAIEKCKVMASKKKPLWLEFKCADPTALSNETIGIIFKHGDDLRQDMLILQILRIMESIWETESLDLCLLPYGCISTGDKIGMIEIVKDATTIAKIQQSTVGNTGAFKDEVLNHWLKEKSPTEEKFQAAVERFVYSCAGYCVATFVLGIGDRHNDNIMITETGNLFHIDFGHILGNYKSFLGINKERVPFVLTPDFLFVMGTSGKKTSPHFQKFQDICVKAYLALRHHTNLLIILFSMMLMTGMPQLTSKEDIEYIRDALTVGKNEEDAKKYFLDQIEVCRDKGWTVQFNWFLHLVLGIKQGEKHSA
T2 sequence (P42336 whole entry): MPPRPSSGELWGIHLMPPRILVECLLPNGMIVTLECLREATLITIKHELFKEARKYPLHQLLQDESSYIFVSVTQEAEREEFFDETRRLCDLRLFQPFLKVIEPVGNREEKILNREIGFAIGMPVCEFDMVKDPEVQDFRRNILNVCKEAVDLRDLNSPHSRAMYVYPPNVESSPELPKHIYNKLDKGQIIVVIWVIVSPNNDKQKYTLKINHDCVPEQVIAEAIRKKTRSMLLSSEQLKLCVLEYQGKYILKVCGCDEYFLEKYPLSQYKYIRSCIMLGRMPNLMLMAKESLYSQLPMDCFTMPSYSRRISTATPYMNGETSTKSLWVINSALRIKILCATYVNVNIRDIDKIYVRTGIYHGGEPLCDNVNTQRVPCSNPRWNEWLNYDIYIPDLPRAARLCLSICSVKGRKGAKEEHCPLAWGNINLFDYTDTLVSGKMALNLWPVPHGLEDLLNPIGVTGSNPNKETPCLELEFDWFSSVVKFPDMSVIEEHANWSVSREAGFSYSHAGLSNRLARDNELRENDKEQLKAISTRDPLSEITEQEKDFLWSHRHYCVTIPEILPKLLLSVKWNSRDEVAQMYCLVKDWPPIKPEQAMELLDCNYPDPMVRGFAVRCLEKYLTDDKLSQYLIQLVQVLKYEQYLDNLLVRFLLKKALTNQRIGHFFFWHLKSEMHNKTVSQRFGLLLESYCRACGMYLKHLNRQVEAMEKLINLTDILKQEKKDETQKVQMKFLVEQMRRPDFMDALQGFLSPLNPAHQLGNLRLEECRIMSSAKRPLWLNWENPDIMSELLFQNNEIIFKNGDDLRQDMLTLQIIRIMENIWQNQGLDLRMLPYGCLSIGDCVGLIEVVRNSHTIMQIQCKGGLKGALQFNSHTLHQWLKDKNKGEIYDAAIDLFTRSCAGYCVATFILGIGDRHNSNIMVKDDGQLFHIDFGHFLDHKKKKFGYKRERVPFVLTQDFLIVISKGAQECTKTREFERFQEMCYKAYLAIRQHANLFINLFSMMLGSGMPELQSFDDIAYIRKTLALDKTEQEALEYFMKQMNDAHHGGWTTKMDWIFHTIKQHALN
T2 sequence (P27986 whole entry partner): as the sequence (P27986 whole entry partner) above

On to `C[C@H](Nc1ncnc2[nH]cnc12)c1cc2cccc(Cl)c2c(CCN2CCOCC2)n1` [Compound 4], for which the pIC50 in test [1] was > 5.00; in test [2] it was > 7.00; in test [3] it was > 5.00; in test [4] it was > 7.00; in test [5], > 5.00.

With `C[C@H](Nc1ncnc2[nH]cnc12)c1cc2cccc(Cl)c2c(CN2CCOCC2)n1` [Compound 7], the pIC50 in test [1] was > 5.00; in test [2], > 7.00; in test [3] it was < 5.00; in test [4], > 7.00; in test [5], < 5.00.

Consider `C[C@H](Nc1ncnc2[nH]cnc12)c1cc2cccc(Cl)c2c(CN2CCC(F)(F)C2)n1` [Compound 8], for which the pIC50 in test [1] is > 6.00; in test [2], > 6.00; in test [3], > 5.00; in test [4], > 6.00; in test [5] it was > 5.00.

In the case of `C[C@H](Nc1ncnc2[nH]cnc12)c1cc2cccc(Cl)c2c(C(=O)N2CCOCC2)n1` [Compound 13], the negative-log IC50 (pIC50) is > 7.00 in test [1]; > 7.00 in test [2]; < 5.00 in test [3]; > 7.00 in test [4]; > 5.00 in test [5].

On to `C[C@H](Nc1ncnc2[nH]cnc12)c1cc2cccc(Cl)c2c(C(=O)N2CCCC2)n1` [Compound 14], for which the pIC50 was > 5.00 in test [1]; > 7.00 in test [2]; < 5.00 in test [3]; > 7.00 in test [4]; < 5.00 in test [5].

Consider `C[C@H](Nc1ncnc2[nH]cnc12)c1cc2cccc(Cl)c2c(C(=O)N2CCN(C)CC2)n1` [Compound 15], for which the pIC50 in test [1] is > 5.00; in test [2], > 7.00; in test [3] it was > 5.00; in test [4], > 7.00; in test [5], < 5.00.

For `C[C@H](Nc1ncnc2[nH]cnc12)c1cc2cccc(Cl)c2c(C(=O)N2C3CCC2COC3)n1` [Compound 16], the pIC50 in test [1] is > 5.00; in test [2], > 7.00; in test [3] it was < 5.00; in test [4], > 7.00; in test [5], > 5.00.

Regarding `C[C@@H]1CN(C(=O)c2nc([C@H](C)Nc3ncnc4[nH]cnc34)cc3cccc(Cl)c23)CCN1` [Compound 17], the negative-log IC50 (pIC50) in test [1] is < 5.00; in test [2] it was > 6.00; in test [3], < 5.00; in test [4], > 7.00; in test [5], > 5.00.

On to `C[C@H](Nc1ncnc2[nH]cnc12)c1cc2cccc(Cl)c2c(C(=O)N2CCN[C@@H](C)C2)n1` [Compound 18], for which the negative logarithm of the IC50 (pIC50) in test [1] was > 5.00; in test [2] it was > 6.00; in test [3] it was > 5.00; in test [4], > 7.00; in test [5], > 6.00.

As to `C[C@H](Nc1ncnc2[nH]cnc12)c1cc2cccc(Cl)c2c(C(=O)N2CC3CCC(C2)O3)n1` [Compound 19], the negative logarithm of the IC50 (pIC50) was > 6.00 in test [1]; > 7.00 in test [2]; < 5.00 in test [3]; > 7.00 in test [4]; > 5.00 in test [5].

Consider `C[C@H](Nc1ncnc2[nH]cnc12)c1cc2cccc(Cl)c2c(C(=O)N2CCC(F)(F)C2)n1` [Compound 20], for which the pIC50 in test [1] was > 6.00; in test [2], > 7.00; in test [3], < 5.00; in test [4] it was > 7.00; in test [5], < 5.00.

Turning to `C[C@H](Nc1ncnc2[nH]cnc12)c1cc2cccc(Cl)c2c(C(=O)N2CC(F)(F)C2)n1` [Compound 21], the pIC50 in test [1] is > 6.00; in test [2] it was > 7.00; in test [3], < 5.00; in test [4], > 7.00; in test [5] it was < 5.00.

On to `C[C@H](Nc1ncnc2[nH]cnc12)c1cc2cccc(Cl)c2c(C(=O)NC2CCC2)n1` [Compound 23], for which the pIC50 was > 5.00 in test [1]; > 7.00 in test [2]; < 5.00 in test [3]; > 7.00 in test [4]; < 5.00 in test [5].

Consider `C[C@H](Nc1ncnc2[nH]cnc12)c1cc2cccc(Cl)c2c(C(=O)N2CCC2)n1` [Compound 24], for which the negative-log IC50 (pIC50) in test [1] was > 5.00; in test [2] it was > 6.00; in test [3], < 5.00; in test [4], > 6.00; in test [5] it was > 5.00.

Take `C[C@H](Nc1ncnc2[nH]cnc12)c1cc2cccc(Cl)c2c(C(=O)Nc2ccccc2)n1` [Compound 25]: the negative-log IC50 (pIC50) was > 5.00 in test [1]; > 6.00 in test [2]; < 5.00 in test [3]; > 7.00 in test [4]; > 5.00 in test [5].

For the molecule `C[C@H](Nc1ncnc2[nH]cnc12)c1cc2cccc(Cl)c2c(C(=O)NCc2ccccc2)n1` [Compound 26], the pIC50 in test [1] is > 6.00; in test [2] it was > 7.00; in test [3], < 5.00; in test [4], > 7.00; in test [5] it was > 5.00.

In the case of `C[C@H](Nc1ncnc2[nH]cnc12)c1cc2cccc(Cl)c2c(CC(=O)N2CCCC2)n1` [Compound 36], the pIC50 in test [1] is > 5.00; in test [2] it was > 6.00; in test [3], < 5.00; in test [4], > 7.00; in test [5] it was > 5.00.

On to `C[C@H](Nc1ncnc2[nH]cnc12)c1cc2cccc(Cl)c2c(CC(=O)N2CCN(C)CC2)n1` [Compound 37], for which the negative-log IC50 (pIC50) was < 5.00 in test [1]; > 6.00 in test [2]; < 5.00 in test [3]; > 6.00 in test [4]; < 5.00 in test [5].

For the molecule `CC(=O)NCCOc1nc([C@H](C)Nc2ncnc3[nH]cnc23)cc2cccc(Cl)c12` [Compound 40, (S)—N-(2-(3-(1-(9H-purin-6-ylamino)ethyl)-8-chloroisoquinolin-1-yloxy)ethyl)acetamide], the pIC50 in test [1] was > 6.00; in test [2], > 7.00; in test [3] it was > 5.00; in test [4] it was > 7.00; in test [5] it was > 5.00.

Take `C[C@H](Nc1ncnc2[nH]cnc12)c1cc2cccc(Cl)c2c(OCC(=O)N2CCN(C)CC2)n1` [Compound 42]: the pIC50 in test [1] was < 5.00; in test [2], > 6.00; in test [3], < 5.00; in test [4], > 7.00; in test [5], > 5.00.

Take `C[C@H](Nc1ncnc2[nH]cnc12)c1cc2cccc(Cl)c2c(OCC(=O)N2CCOCC2)n1` [Compound 43]: the pIC50 was > 6.00 in test [1]; > 7.00 in test [2]; > 5.00 in test [3]; > 7.00 in test [4]; < 5.00 in test [5].

In the case of `CNC(=O)COc1nc([C@H](C)Nc2ncnc3[nH]cnc23)cc2cccc(Cl)c12` [Compound 44], the pIC50 in test [1] is > 6.00; in test [2], > 6.00; in test [3], > 5.00; in test [4], > 7.00; in test [5], > 5.00.

Take `C[C@H](Nc1ncnc2[nH]cnc12)c1cc2cccc(Cl)c2c(OCC(=O)N2CCCC2)n1` [Compound 45]: the pIC50 is > 5.00 in test [1]; > 6.00 in test [2]; < 5.00 in test [3]; > 7.00 in test [4]; < 5.00 in test [5].

What is called pIC50 is the IC50 on a negative log10 scale, so that one unit is a factor of ten.
